According to US6919317B2, “Pharmaceutical composition comprising squalene epoxidase inhibitor and macrolide immunomodulator” (priority 2000, dated 2005):

Tests used:
Format in all cases: cell-based
Candida albicans = test: NCCLS broth dilution combination study in yeast (modified M27-T), Candida albicans isolate; details: for Antifungal activity of test compound alone: C. albicans isolate; for Interaction with fluconazole, C. albicans / Interaction with terbinafine, C. albicans: interpretation of FICI, MIC = 80% inhibition of growth, 48 hours; for Interaction with terbinafine, C. albicans: 37°, pH 7.0, isolate susceptible to both drugs
Method: (§1) Combination studies are performed with Candida species, using the NCCLS standard assay (National Committee for Clinical Laboratory Standards [1995], Reference method for broth dilution antifungal susceptibility testing of yeasts (Tentative Standard M27-T, NCCL, Villanova, Pa., U.S.A.), modified as follows: the assay is effected in RPMI 1640 medium without NaHCO3 but with L-glutamine buffered with MOPS at pH 7.0 at 37°. The inoculum is 2.5×10^3 cfu/ml. Incubation times are 48 hours. The MIC is defined as the lowest drug concentration causing 80% inhibition of fungal growth.
(§2) The reference test compound (either terbinafine or fluconazole) is tested in a full concentration range in the absence or presence of the other test drug at 1, 2, 4, and 8 μg/ml.
(§3) Interaction between the drugs is analysed by calculation of the Fractional Inhibitory Concentration Index (FICI), defined as: FICI=[(MIC A in combination)/MIC A]+[MIC B in combination]/MIC B]
(§4) Interpretation of FICI in terms of interaction between the two drugs is as follows: FICI=0.5: synergy; <0.5<FICI=1: additive; 1<FICI=2: indifferent; 2<FICI: antagonism (in practical terms, synergy by this definition means that the MICs of both drugs are reduced by at least 2 dilution steps when used in combination).
(§5) The ability of the four test compounds 33-epichloro,33-desoxyascomycin, 5,6-dehydroascomycin, ascomycin and tacrolimus to influence the antifungal activity of terbinafine and fluconazole was examined in a Candida albicans isolate susceptible to both drugs, and in one isolate of Candida krusei which is resistant to terbinafine and poorly responsive to fluconazole.

Candida krusei = test: NCCLS broth dilution combination study in yeast (modified M27-T), Candida krusei isolate; details: for Antifungal activity of test compound alone: C. krusei isolate; for Interaction with terbinafine as reference compound (in words): against Candida krusei; for Interaction with fluconazole, C. krusei / Interaction with terbinafine, C. krusei: interpretation of FICI, MIC = 80% inhibition of growth, 48 hours; for Interaction with fluconazole, C. krusei: isolate poorly responsive to fluconazole; for Interaction with terbinafine, C. krusei: isolate resistant to terbinafine
Method: as §1, §2, §3, §4, §5

[1] = tested on: Microsporum canis (strain NFI 5167); test: Checkerboard combination study in dermatophyte, modified NCCLS microdilution M38-P; details: for MIC single drug: MIC = lowest concentration causing 80% inhibition of fungal growth; for MIC single drug / MIC combination: unit assumed; for MIC combination: terbinafine hydrochloride combined with 33-epichloro,33-desoxyascomycin, MIC = 80% inhibition
Method: Minimum Inhibitory Concentrations (MIC) against dermatophytes are determined in 96-well assay trays by a modification of the NCCLS microdilution procedure M38-P (National Committee for Clinical Laboratory Standards, Reference method for broth antifungal susceptibility testing of conidium-forming filamentous fungi; NCCLS document M38-P; NCCLS, Wayne, Pa., USA [1998]), as detailed in H. A. Norris et al., J. Am. Acad. Dermatol. 40 [1999] S9-S13). The MIC is defined as the lowest drug concentration causing 80% inhibition of fungal growth.
Combination studies are performed in a checkerboard design using the above assay to provide a matrix of all possible dose combination of the two drugs within the required concentration range. The matrix structure is provided by the microtiter trays used for the assay. The terbinafine dilution series is arranged on the y-axis (in columns) and the partner drug on the x-axis (in rows). In each row, well no. 1 contains the sterility control, well no. 2 contains terbinafine hydrochloride alone, wells no. 3 to no. 11 contain the dilution series of the partner drug 33-epichloro,33-desoxyascomycin, and well no. 12 contains the growth control. In each column, well A contains the partner drug alone and wells B to H contain the dilution series of terbinafine hydrochloride.
The nature of the interaction between the two drugs is defined quantitatively by means of the Fractional Inhibitory Concentration Index (FICI), which is calculated by the following formula: FICI=[(MIC A in combination)/MIC A]+[(MIC B in combination)/MIC B].
Interpretation of the FICI is: • ≦0.5: synergy; • >0.5 but ≦1: additive; • >1 but ≦2: indifferent; • >2: antagonism.
In practice, synergy calculated in this way is equivalent to a reduction of at least 2 dilution steps in the MIC of each drug when they are combined.

Row | SMILES | Antifungal activity of test compound alone (Candida albicans) | Interaction with fluconazole, C. albicans (Candida albicans) | Interaction with terbinafine, C. albicans (Candida albicans) | Antifungal activity of test compound alone (Candida krusei) | Interaction with terbinafine as reference compound (in words) (Candida krusei) | Interaction with fluconazole, C. krusei (Candida krusei) | Interaction with terbinafine, C. krusei (Candida krusei) | FICI ([1]; combination with terbinafine hydrochloride) | Interpretation (of FICI) ([1]; combination with terbinafine hydrochloride, ≦0.5: synergy) | MIC single drug [1] [µg/mL] | MIC combination [1] [µg/mL] | Interaction of fluconazole with the macrolide test compounds (in words) (Candida albicans; Candida albicans, statement covers both Candida isolates) | Interaction of fluconazole with the macrolide test compounds (in words) (Candida krusei; Candida krusei, statement covers both Candida isolates)
1 | CC[C@@H]1/C=C(\C)C[C@H](C)C[C@H](OC)[C@H]2O[C@@](O)(C(=O)C(=O)N3C=CCC[C@H]3C(=O)O[C@H](/C(C)=C/[C@@H]3CC[C@@H](O)[C@H](OC)C3)[C@H](C)[C@@H](O)CC1=O)[C@H](C)C[C@@H]2OC [5,6-Dehydro-ascomycin, {1R,5Z,9S,12S-[1E-(1R,3R,4R)],13R,14S,17R,18E,21S,23S,24R,25S,27R}-17-ethyl-1,14-dihydroxy-12-[2-(4-hydroxy-3-methoxycyclohexyl)-1-methylvinyl]-23,25-dimethoxy-13,19,21,27-tetramethyl-11,28-dioxa-4-azatricyclo[22.3.1.0(4,9)]octacos-5,18-diene-2,3,10,16-tetraone] | completely inactive | − (−: indifferent/antagonistic) | + (+: additive) | completely inactive | strongly positive | − (−: indifferent/antagonistic) | − (−: indifferent/antagonistic) | – | – | – | – | – | –
2 | CC[C@@H]1/C=C(\C)C[C@H](C)C[C@H](OC)[C@H]2O[C@@](O)(C(=O)C(=O)N3CCCC[C@H]3C(=O)O[C@H](/C(C)=C/[C@@H]3CC[C@H](Cl)[C@H](OC)C3)[C@H](C)[C@@H](O)CC1=O)[C@H](C)C[C@@H]2OC [33-Epichloro,33-desoxy-ascomycin, {[1E-(1R,3R,4S)]1R,9S,12S, 13R,14S,17R,18E, 21S,23S,24R,25S,27R}-12-[2-(4-chloro-3-methoxycyclohexyl)-1-methylvinyl]-17-ethyl-1,14-dihydroxy-23,25-dimethoxy-13,19,21,27-tetramethyl-11,28,dioxa-4-azatricyclo [22.3.1.0(4,9)]octacos-18-ene-2,3,10,16-tetraone] | completely inactive | − (−: indifferent/antagonistic) | + (+: additive) | completely inactive | strongly positive | − (−: indifferent/antagonistic) | − (−: indifferent/antagonistic) | 0.28 | synergy | 64 | 16 | – | –
3 | CC[C@@H]1/C=C(\C)C[C@H](C)C[C@H](OC)[C@H]2O[C@@](O)(C(=O)C(=O)N3CCCC[C@H]3C(=O)O[C@H](/C(C)=C/[C@@H]3CC[C@@H](O)[C@H](OC)C3)[C@H](C)[C@@H](O)CC1=O)[C@H](C)C[C@@H]2OC [Ascomycin, ascomycin] | completely inactive | − (−: indifferent/antagonistic) | + (+: additive) | completely inactive | powerfully synergistic | − (−: indifferent/antagonistic) | (* ((*: synergy) | – | – | – | – | – | –
4 | C=CC[C@@H]1/C=C(\C)C[C@H](C)C[C@H](OC)[C@H]2O[C@@](O)(C(=O)C(=O)N3CCCC[C@H]3C(=O)O[C@H](/C(C)=C/[C@@H]3CC[C@@H](O)[C@H](OC)C3)[C@H](C)[C@@H](O)CC1=O)[C@H](C)C[C@@H]2OC [Tacrolimus, tacrolimus] | completely inactive | − (−: indifferent/antagonistic) | + (+: additive) | completely inactive | powerfully synergistic | − (−: indifferent/antagonistic) | (* ((*: synergy) | – | – | – | – | – | –
5 | OC(Cn1cncn1)(Cn1cncn1)c1ccc(F)cc1F [fluconazole] | – | – | – | – | – | – | – | – | – | – | – | no potent synergy | no potent synergy
6 | CN(C/C=C/C#CC(C)(C)C)Cc1cccc2ccccc12 [terbinafine, (E)-N-methyl-N-(1-naphthylmethyl)-6,6-dimethylhept-2-en-4-amin] | – | – | – | – | – | – | – | – | – | 0.031 | 0.001 | – | –
